Read-outs that look alike come from different tables or passages of the source.
Key:
HL-60 cells = experiment: HL-60 cancer cell growth, MTT assay; assay type: cell-based, human; settings: 50 μM, 24 hr
Procedure: To investigate the effects of KA-A derivatives in cultured cells, we used a human cancer cell line, HL-60, human promyelocytic leukemia cells (IFO 050022), supplied by the Health Science Research Resources Bank (Osaka, Japan). The cells were routinely cultured in RPMI 1640 medium supplemented with 10% fetal bovine serum, 100 μg/mL streptomycin, 100 unit/mL penicillin, and 1.6 mg/mL NaHCO3. The cells were cultured at 37 °C in standard medium in a humidified atmosphere of 5% CO2-95% air. The rate of the cancer cell growth of the compound was investigated as follows: high concentrations (10 mM) of the compounds were dissolved in DMSO and stocked. Approximately 1 x 10^4 cells per well were inoculated in 96-well micro plates, and then the compound stock solution was diluted to various concentrations, and applied to each well. After incubation for 24 hr, the survival rate was determined by MTT (3-(4,5-dimethylthiazol-2-yl)-2,5-diphenyl tetrazolium bromide) assay.

Calf DNA polymerase α [1] = biological target: T1, Calf DNA polymerase α (Bos taurus, UniProt A0AAA9THK8); experiment: DNA polymerase assay, calf pol α; assay type: biochemical
T1 sequence (Q58D13 whole entry): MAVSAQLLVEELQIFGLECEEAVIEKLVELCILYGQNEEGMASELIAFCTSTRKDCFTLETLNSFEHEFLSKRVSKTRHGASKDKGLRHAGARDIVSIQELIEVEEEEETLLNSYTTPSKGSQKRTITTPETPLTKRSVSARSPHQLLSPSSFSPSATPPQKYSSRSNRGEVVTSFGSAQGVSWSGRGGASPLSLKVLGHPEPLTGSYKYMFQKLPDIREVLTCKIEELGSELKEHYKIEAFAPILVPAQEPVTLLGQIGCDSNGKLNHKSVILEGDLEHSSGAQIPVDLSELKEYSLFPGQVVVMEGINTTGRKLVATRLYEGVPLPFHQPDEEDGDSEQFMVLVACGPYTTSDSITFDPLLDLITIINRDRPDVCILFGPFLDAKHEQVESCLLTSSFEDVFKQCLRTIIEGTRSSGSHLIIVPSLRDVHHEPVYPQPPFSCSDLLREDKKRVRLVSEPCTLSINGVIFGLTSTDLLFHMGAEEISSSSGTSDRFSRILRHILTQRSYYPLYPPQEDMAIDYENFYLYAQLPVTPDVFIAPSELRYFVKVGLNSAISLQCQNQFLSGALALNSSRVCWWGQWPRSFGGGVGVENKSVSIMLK
T1 sequence (A0AAA9THK8 entry or part of it): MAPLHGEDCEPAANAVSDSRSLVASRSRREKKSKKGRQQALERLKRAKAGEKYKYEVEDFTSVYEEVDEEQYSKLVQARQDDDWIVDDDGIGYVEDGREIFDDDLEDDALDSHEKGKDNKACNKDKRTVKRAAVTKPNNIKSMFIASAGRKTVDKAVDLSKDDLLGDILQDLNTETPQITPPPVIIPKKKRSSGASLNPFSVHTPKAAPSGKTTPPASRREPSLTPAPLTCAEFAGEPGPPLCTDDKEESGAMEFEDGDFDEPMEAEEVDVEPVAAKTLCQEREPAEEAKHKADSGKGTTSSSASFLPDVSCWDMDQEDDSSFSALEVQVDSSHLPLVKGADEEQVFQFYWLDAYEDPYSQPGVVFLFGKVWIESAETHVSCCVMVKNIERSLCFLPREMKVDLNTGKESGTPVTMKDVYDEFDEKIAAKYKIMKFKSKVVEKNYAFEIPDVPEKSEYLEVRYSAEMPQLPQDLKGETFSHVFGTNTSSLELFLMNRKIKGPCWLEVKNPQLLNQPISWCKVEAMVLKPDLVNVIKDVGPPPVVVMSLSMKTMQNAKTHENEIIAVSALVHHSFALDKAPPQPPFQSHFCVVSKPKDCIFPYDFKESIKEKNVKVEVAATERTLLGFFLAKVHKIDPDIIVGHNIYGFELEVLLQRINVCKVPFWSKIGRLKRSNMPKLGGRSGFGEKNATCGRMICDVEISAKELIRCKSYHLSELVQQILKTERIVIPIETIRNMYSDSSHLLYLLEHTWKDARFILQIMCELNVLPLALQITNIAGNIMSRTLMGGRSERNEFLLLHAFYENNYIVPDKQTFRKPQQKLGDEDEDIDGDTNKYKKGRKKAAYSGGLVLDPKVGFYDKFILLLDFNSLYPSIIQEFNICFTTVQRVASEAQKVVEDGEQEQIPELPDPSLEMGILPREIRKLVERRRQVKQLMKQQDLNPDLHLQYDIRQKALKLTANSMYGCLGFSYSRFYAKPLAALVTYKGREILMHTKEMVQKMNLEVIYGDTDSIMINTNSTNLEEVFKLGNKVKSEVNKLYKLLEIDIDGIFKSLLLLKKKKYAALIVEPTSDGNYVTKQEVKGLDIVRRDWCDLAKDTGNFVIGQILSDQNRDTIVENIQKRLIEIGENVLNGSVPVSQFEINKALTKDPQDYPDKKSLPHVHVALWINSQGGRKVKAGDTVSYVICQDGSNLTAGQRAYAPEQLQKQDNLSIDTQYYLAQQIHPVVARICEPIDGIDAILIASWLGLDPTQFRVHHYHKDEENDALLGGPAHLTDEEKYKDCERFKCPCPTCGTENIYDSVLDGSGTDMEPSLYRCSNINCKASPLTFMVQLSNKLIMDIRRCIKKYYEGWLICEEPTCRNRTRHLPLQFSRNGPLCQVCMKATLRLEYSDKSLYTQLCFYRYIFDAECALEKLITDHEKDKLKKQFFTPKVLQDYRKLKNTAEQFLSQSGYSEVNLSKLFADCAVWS
T1 sequence (A0JNF4 entry or part of it, further chain): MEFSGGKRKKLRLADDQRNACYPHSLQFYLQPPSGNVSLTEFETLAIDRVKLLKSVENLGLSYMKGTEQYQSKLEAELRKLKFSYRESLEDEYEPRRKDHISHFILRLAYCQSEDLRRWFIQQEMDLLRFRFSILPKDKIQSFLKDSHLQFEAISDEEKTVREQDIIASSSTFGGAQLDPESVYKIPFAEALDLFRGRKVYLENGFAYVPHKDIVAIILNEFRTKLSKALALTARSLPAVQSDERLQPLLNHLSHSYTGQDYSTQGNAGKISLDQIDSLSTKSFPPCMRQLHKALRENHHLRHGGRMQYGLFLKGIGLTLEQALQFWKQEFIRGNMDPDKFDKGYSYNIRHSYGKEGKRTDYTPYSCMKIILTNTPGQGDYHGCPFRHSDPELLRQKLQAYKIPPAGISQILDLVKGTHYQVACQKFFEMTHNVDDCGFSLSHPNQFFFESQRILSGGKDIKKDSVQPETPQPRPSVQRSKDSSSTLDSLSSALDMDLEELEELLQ
T1 sequence (A0A3Q1MF00 entry or part of it, further chain): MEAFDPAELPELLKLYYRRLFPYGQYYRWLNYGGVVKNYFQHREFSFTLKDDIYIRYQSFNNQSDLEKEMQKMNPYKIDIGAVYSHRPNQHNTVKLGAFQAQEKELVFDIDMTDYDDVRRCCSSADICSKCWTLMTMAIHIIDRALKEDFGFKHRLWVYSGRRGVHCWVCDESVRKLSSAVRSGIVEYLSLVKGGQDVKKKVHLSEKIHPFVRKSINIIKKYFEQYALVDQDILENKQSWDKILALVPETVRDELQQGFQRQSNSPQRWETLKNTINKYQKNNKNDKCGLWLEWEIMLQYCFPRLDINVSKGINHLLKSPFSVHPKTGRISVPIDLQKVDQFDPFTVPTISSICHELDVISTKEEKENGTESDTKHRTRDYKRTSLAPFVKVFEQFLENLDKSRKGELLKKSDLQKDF
From the text: (§1) Pol α was purified from calf thymus by immuno-affinity column chromatography as described by Tamai et al.. Recombinant rat pol β was purified from E. coli JMpβ5 as described by Date et al.. The human pol γ catalytic gene was cloned into pFastBac. Histidine-tagged enzyme was expressed using the BAC-TO-BAC HT Baculovirus Expression System according to the supplier's manual (LIFE TECHNOLOGIES, MD, USA) and purified using ProBoundresin (Invitrogen Japan, Tokyo, Japan). Human pols δ and ε were purified by the nuclear fractionation of human peripheral blood cancer cells (Molt-4) using the second subunit of pols δ and ε-conjugated affinity column chromatography, respectively. Recombinant human pols η and ι tagged with His6 at their C-terminal were expressed in SF9 insect cells using the baculovirus expression system, and were purified as described previously. A truncated form of pol κ (i.e., hDINB1DC) with 6 x His-tags attached at the C-terminal was overproduced using the BAC-to-BAC Baculovirus Expression System kit (GIBCO BRL, MD, USA) and purified as described previously. Recombinant human His-pol λ was overexpressed and purified according to a method described previously. Fish pol δ was purified from the testis of cherry salmon (Oncorhynchus masou). Pol I (α-like) from a higher plant, cauliflower inflorescence, was purified according to the methods outlined by Sakaguchi et al.. The Klenow fragment of pol I from E. coli was purchased from Worthington Biochemical Corp. (Freehold, NJ, USA). Taq pol, T4 pol, T7 RNA polymerase and T4 polynucleotide kinase were purchased from Takara (Kyoto, Japan). Bovine pancreas deoxyribonuclease I (DNase I) was obtained from Stratagene Cloning Systems (La Jolla, CA, USA).
(§2) The reaction mixtures for pol α, pol β, fish pol δ, plant pol I (α-like) and prokaryotic pols were described previously, and those for pol γ, and pols δ and ε were as described by Umeda et al. and Ogawa et al., respectively. The reaction mixtures for pols η, ι and κ were the same as for pol α, and the reaction mixture for pol λ was the same as that for pol β.
For pols, poly(dA)/oligo(dT)12-18 (A/T = 2/1) and dTTP were used as the DNA template-primer and nucleotide (i.e., dNTP) substrate, respectively. KA-A analogues (i.e., compounds 1–12) were dissolved in distilled dimethyl sulfoxide (DMSO) at various concentrations and sonicated for 30 sec. Aliquots of 4 μL of sonicated samples were mixed with 16 μL of each enzyme (final amount 0.05 units) in 50 mM Tris-HCl (pH 7.5) containing 1 mM dithiothreitol, 50% glycerol and 0.1 mM EDTA, and kept at 0 °C for 10 min. […] Activity without the inhibitor was considered 100%, and the remaining activity at each concentration of the inhibitor was determined relative to this value. […]

Rat DNA polymerase β [2] = biological target: T2, Rat DNA polymerase β (Rattus norvegicus, UniProt P06766); experiment: DNA polymerase assay, rat pol β; assay type: biochemical; settings: 10 and 100 μM of compound (Figure 2B)
T2 construct: made in house; host or cells: E. coli JMpβ5
From the text: as §1, §2
For pols, poly(dA)/oligo(dT)12-18 (A/T = 2/1) and dTTP were used as the DNA template-primer and nucleotide (i.e., dNTP) substrate, respectively. KA-A analogues (i.e., compounds 1–12) were dissolved in distilled dimethyl sulfoxide (DMSO) at various concentrations and sonicated for 30 sec. Aliquots of 4 μL of sonicated samples were mixed with 16 μL of each enzyme (final amount 0.05 units) in 50 mM Tris-HCl (pH 7.5) containing 1 mM dithiothreitol, 50% glycerol and 0.1 mM EDTA, and kept at 0 °C for 10 min. These inhibitor-enzyme mixtures (8 μl) were added to 16 μL of each of the enzyme standard reaction mixtures, and incubation was carried out at 37 °C for 60 min, except for Taq pol, which was incubated at 74 °C for 60 min. Activity without the inhibitor was considered 100%, and the remaining activity at each concentration of the inhibitor was determined relative to this value. One unit of pol activity was defined as the amount of enzyme that catalyzed the incorporation of 1 nmol of dNTP (i.e., dTTP) into synthetic DNA template-primers in 60 min at 37 °C under the normal reaction conditions for each enzyme.

Calf DNA polymerase α [3] = biological target: T1, Calf DNA polymerase α; set-up: method as in PMID 12758147; settings: reported previously; read-out: IC50 value, pol α; cited from earlier work
Rat DNA polymerase β [4] = biological target: T2, Rat DNA polymerase β; set-up: method as in PMID 12758147; settings: reported previously; read-out: IC50 value, pol β; cited from earlier work
[5] = tested on: double-stranded DNA (dsDNA); experiment: Thermal transition (Tm) of double-stranded DNA; assay type: binding; settings: compound 11 at 200 μM; data not shown
Procedure: The Tm of dsDNA with an excess amount of compound 11 (200 μM) was measured using a spectrophotometer equipped with a thermoelectric cell holder.

CC1=CC[C@H]2C(C)(C)CCC[C@]2(C)[C@H]1CCCCCCCCCCCCC(=O)O (relative stereo) [compound 10, (1S*,4aS*,8aS*)-13-(1,4,4a,5,6,7,8,8a-octahydro-2,5,5,8a-tetramethylnaphthalen-1-yl)tridecanoic acid]
Growth inhibitory effect on HL-60 cells, rank among compounds tested (HL-60 cells): third strongest

CC1=CC[C@H]2C(C)(C)CCC[C@]2(C)[C@H]1CCCCCCCCCCCCCCCCCCCCC(=O)O (relative stereo) [compound 12, (1S*,4aS*,8aS*)-21-(1,4,4a,5,6,7,8,8a-octahydro-2,5,5,8a-tetramethylnaphthalen-1-yl)henicosanoic acid]
Growth inhibitory effect on HL-60 cells, rank among compounds tested (HL-60 cells): second

C[C@@]1(CO)[C@H](O)CC[C@@]2(C)[C@H]1CC[C@H]1C[C@@H]3C[C@@]12CC[C@]3(O)CO [aphidicolin, reference compound]
IC50 (Calf DNA polymerase α [1]): 40 µM

CC1=CC[C@H]2C(C)(C)CCC[C@]2(C)[C@H]1CCCCCCCCC(=O)O (relative stereo) [compound 9, (1S*,4aS*,8aS*)-9-(1,4,4a,5,6,7,8,8a-octahydro-2,5,5,8a-tetramethylnaphthalen-1-yl)nonanoic acid]
Inhibitory effect on pol α compared with KA-A (Calf DNA polymerase α [1]; 10 and 100 μM of compound (Figure 2A)): as strong as that of KA-A | Inhibitory effect on pol β compared with KA-A (Rat DNA polymerase β [2]): as strong as that of KA-A

CC(C)=CCC[C@@]1(C)CCC[C@]2(C)[C@@H](CC/C(C)=C/C(=O)O)C(C)=CC[C@@H]12 [compound 1, kohamaic acid A]
IC50 (Calf DNA polymerase α [3]): 7.6 µM | IC50 (Rat DNA polymerase β [4]): 8.4 µM

CC[n+]1c(-c2ccccc2)c2cc(N)ccc2c2ccc(N)cc21 [ethidium bromide, reference compound]
Thermal transition of Tm of dsDNA [5]: clear thermal transition
